Ends that are not written are not given here.
What was measured:
S. aureus ATCC 29213 = experiment: MIC, broth dilution; type: cell-based, Staphylococcus aureus; settings: for MIC (μg/mL) S. aureus: liquid broth; for MIC S. aureus: S. aureus ATCC 29213
Method: (§1) MIC determination. MICs were measured using peptides with 95% purity. For bacterial studies, cation-adjusted Mueller Hinton (MH) broth was used as the growth medium whereas Yeast Peptone Dextrose (YPD; 10 g/L yeast extract, 20 g/L peptone, 20 g/L dextrose) was used for Candida spp. and other yeast. Microorganisms were diluted to an optical density of […] in MH or YPD broth and a 180 μl volume was mixed with 20 μl of peptide arrayed as a 2-fold dilution series in a flat-bottom 96-well microtitre plate. A control was performed using 20 μl of sterile water. Plates were incubated as standing cultures overnight at 37° C.
(§2) Determination of minimum inhibitory concentrations. The MICs were measured for bioactive peptides identified from the initial screen. For bacterial studies, cation-adjusted Mueller Hinton (MH) broth was used as the growth medium whereas YPD was used for C. albicans. Bacterial cultures were diluted to a OD value of 6×10^−4 in MH broth and a 180 μl volume was mixed with 20 μl of peptide arrayed as 2-fold dilution series in a 96-well plate. For the positive control, 20 μl of sterile water was used. Plates were incubated as standing cultures overnight at 37° C. The lowest peptide concentration that resulted no observed microbial growth after an overnight treatment was defined as the MIC.

[1] = test system: S. aureus ATCC 33592 (MRSA SCCmec type III); experiment: MIC, broth dilution; type: cell-based, Staphylococcus aureus; settings: Table 5; STIP3 variants, highest concentration 100 μg/mL
Method: as §1, §2

[2] = test system: S. aureus ATCC BAA-1683 (MRSA SCCmec type IV); experiment: MIC, broth dilution; type: cell-based, Staphylococcus aureus; settings: Table 5; STIP3 variants, highest concentration 100 μg/mL
Method: as §1, §2

[3] = test system: S. aureus ATCC BAA-2094 (MRSA SCCmec type V); experiment: MIC, broth dilution; type: cell-based, Staphylococcus aureus; settings: Table 5; STIP3 variants, highest concentration 100 μg/mL
Method: as §1, §2

[4] = test system: S. aureus ATCC BAA-2313 (MRSA SCCmec type XI); experiment: MIC, broth dilution; type: cell-based, Staphylococcus aureus; settings: Table 5; STIP3 variants, highest concentration 100 μg/mL
Method: as §1, §2

[5] = test system: S. aureus ATCC BAA-41 (MRSA SCCmec type II); experiment: MIC, broth dilution; type: cell-based, Staphylococcus aureus; settings: Table 5; STIP3 variants, highest concentration 100 μg/mL
Method: as §1, §2

[6] = test system: S. aureus ATCC BAA-42 (MRSA SCCmec type VI); experiment: MIC, broth dilution; type: cell-based, Staphylococcus aureus; settings: Table 5; STIP3 variants, highest concentration 100 μg/mL
Method: as §1, §2

[7] = test system: S. aureus ATCC BAA-44 (MRSA SCCmec type I); experiment: MIC, broth dilution; type: cell-based, Staphylococcus aureus; settings: Table 5; STIP3 variants, highest concentration 100 μg/mL
Method: as §1, §2

[8] = test system: Mannheimia haemolytica ATCC 33393; experiment: MIC, broth dilution; type: cell-based; settings: for MIC M. haemolytica: M. haemolytica ATCC 33393
Method: as §1, §2
The ability of STIP3 variants to inhibit the growth of Mannheimia haemolytica ATCC 33393 was evaluated. This included an alanine scan of STIP3-1 (FIG. 8 & Table 10) as well as 30 rationally-designed STIPs that were evaluated in the preceding Examples against other pathogens (Table 11). Substitutions at a greater number of sites were tolerated in the context of antimicrobial activity. Moreover, the inclusion of basic natural and unnatural amino acids (e.g. lysine, ornithine, and arginine) at positions 3, 4 and 11 (i.e. X1, X2, and X4 of SEQ ID NO: 32) to afford a more uniformly cationic peptide increased activity against M. haemolytica.

C. albicans MYA-2876 = experiment: MIC, YPD broth; type: cell-based, Candida albicans; settings: for MIC C. albicans: Candida albicans MYA-2876
Method: as §1, §2

[9] = test system: Candida duobushaemulonii AR 391; experiment: MIC, YPD broth, CDC and FDA AR Candida isolate panel; type: cell-based; settings: Table 9 below the line: only 200 or 100 μg/mL tested; values reported as 100 are ≤100 μg/mL
Method: as §1

[10] = test system: Candida duobushaemulonii AR 392; experiment: as above; type: cell-based; settings: Table 9 below the line: only 200 or 100 μg/mL tested; values reported as 100 are ≤100 μg/mL
Method: as §1

[11] = test system: Candida duobushaemulonii AR 394; experiment: as above; type: cell-based; settings: Table 9 below the line: only 200 or 100 μg/mL tested; values reported as 100 are ≤100 μg/mL
Method: as §1

[12] = test system: Candida haemulonii AR 393; experiment: as above; type: cell-based; settings: Table 9 below the line: only 200 or 100 μg/mL tested; values reported as 100 are ≤100 μg/mL
Method: as §1

[13] = test system: Candida haemulonii AR 395; experiment: as above; type: cell-based; settings: Table 9 below the line: only 200 or 100 μg/mL tested; values reported as 100 are ≤100 μg/mL
Method: as §1

Candida krusei AR 397 = experiment: as above; type: cell-based; settings: Table 9 below the line: only 200 or 100 μg/mL tested; values reported as 100 are ≤100 μg/mL
Method: as §1

[14] = test system: Candida lusitaniae AR 398; experiment: as above; type: cell-based; settings: Table 9 below the line: only 200 or 100 μg/mL tested; values reported as 100 are ≤100 μg/mL
Method: as §1

Kodamae ohmeri AR 396 = experiment: as above; type: cell-based; settings: Table 9 below the line: only 200 or 100 μg/mL tested; values reported as 100 are ≤100 μg/mL
Method: as §1

[15] = test system: Saccharomyces cerevisiae AR 399; experiment: as above; type: cell-based; settings: Table 9 below the line: only 200 or 100 μg/mL tested; values reported as 100 are ≤100 μg/mL
Method: as §1

[16] = test system: Saccharomyces cerevisiae AR 400; experiment: as above; type: cell-based; settings: Table 9 below the line: only 200 or 100 μg/mL tested; values reported as 100 are ≤100 μg/mL
Method: as §1

M. luteus ATCC 4698 = experiment: MIC, broth dilution; type: cell-based, Micrococcus luteus; settings: for MIC (μg/mL) M. luteus: Table 4, liquid broth; for MIC M. luteus: M. luteus ATCC 4698
Method: as §1, §2

## TVGGLVKWILDTVKKFK [STIP3-7, TVGGLVKWILDTVKKFK]
S. aureus ATCC 29213; Table 5, STIP3 variants, highest concentration 100 μg/mL
  MIC S. aureus ATCC 29213: > (no inhibition was observed at the highest concentration of peptide tested: 100 μg/mL for the STIP3 variants)
[1]
  MIC S. aureus ATCC 33592 (III): > (no inhibition was observed at the highest concentration of peptide tested: 100 μg/mL for the STIP3 variants)
[2]
  MIC S. aureus ATCC BAA 1683 (IV): > (no inhibition was observed at the highest concentration of peptide tested: 100 μg/mL for the STIP3 variants)
[3]
  MIC S. aureus ATCC BAA 2094 (V): > (no inhibition was observed at the highest concentration of peptide tested: 100 μg/mL for the STIP3 variants)
[4]
  MIC S. aureus ATCC BAA 2313 (XI): > (no inhibition was observed at the highest concentration of peptide tested: 100 μg/mL for the STIP3 variants)
[5]
  MIC S. aureus ATCC BAA 41 (II): > (no inhibition was observed at the highest concentration of peptide tested: 100 μg/mL for the STIP3 variants)
[6]
  MIC S. aureus ATCC BAA 42 (VI): > (no inhibition was observed at the highest concentration of peptide tested: 100 μg/mL for the STIP3 variants)
[7]
  MIC S. aureus ATCC BAA 44 (I): > (no inhibition was observed at the highest concentration of peptide tested: 100 μg/mL for the STIP3 variants)
[8]; Table 11, highest concentration 25 μg/mL
  MIC (μg/mL) M. haemolytica: 25 µg/mL
C. albicans MYA-2876; Table 8
  MIC C. albicans MYA-2876: 50 µg/mL
[9]
  MIC (μg/mL) Candida duobushaemulonii AR 391: > (values below the line were determined using two concentrations of peptide 200 or 100 μg/mL)
[10]
  MIC (μg/mL) Candida duobushaemulonii AR 392: > (values below the line were determined using two concentrations of peptide 200 or 100 μg/mL)
[11]
  MIC (μg/mL) Candida duobushaemulonii AR 394: > (values below the line were determined using two concentrations of peptide 200 or 100 μg/mL)
[12]
  MIC (μg/mL) Candida haemulonii AR 393: > (values below the line were determined using two concentrations of peptide 200 or 100 μg/mL)
[13]
  MIC (μg/mL) Candida haemulonii AR 395: > (values below the line were determined using two concentrations of peptide 200 or 100 μg/mL)
Candida krusei AR 397
  MIC (μg/mL) Candida krusei AR 397: ≤ 100 µg/mL
[14]
  MIC (μg/mL) Candida lusitaniae AR 398: ≤ 100 µg/mL
Kodamae ohmeri AR 396
  MIC (μg/mL) Kodamae ohmeri AR 396: > (values below the line were determined using two concentrations of peptide 200 or 100 μg/mL)
[15]
  MIC (μg/mL) Saccharomyces cerevisiae AR 399: ≤ 100 µg/mL
[16]
  MIC (μg/mL) Saccharomyces cerevisiae AR 400: ≤ 100 µg/mL

## TVGGLVKAILDTVKKFA [W8A, TVGGLVKAILDTVKKFA]
M. luteus ATCC 4698
  MIC (μg/mL) M. luteus: 100 µg/mL
S. aureus ATCC 29213; Table 4
  MIC (μg/mL) S. aureus: > (> = >200 μg/mL (maximum concentration tested))
S. aureus ATCC 29213; Table 10
  MIC (μg/mL) S. aureus: > (the use of > indicates an MIC > 200 μg/mL; the maximum concentration tested)
[8]; Table 10, liquid broth
  MIC (μg/mL) M. haemolytica: 200 µg/mL

## TVGGLVKWIADTVKKFA [L10A, TVGGLVKWIADTVKKFA]
M. luteus ATCC 4698
  MIC (μg/mL) M. luteus: 200 µg/mL
S. aureus ATCC 29213; Table 4
  MIC (μg/mL) S. aureus: > (> = >200 μg/mL (maximum concentration tested))
S. aureus ATCC 29213; Table 10
  MIC (μg/mL) S. aureus: > (the use of > indicates an MIC > 200 μg/mL; the maximum concentration tested)
[8]; Table 10, liquid broth
  MIC (μg/mL) M. haemolytica: 200 µg/mL

## TVKSFVNLILKTVKKYAK-NH2 [STIP8-3]
M. luteus ATCC 4698
  MIC M. luteus: 3.13 µg/mL
S. aureus ATCC 29213
  MIC S. aureus: > (the use of > indicates an MIC >200 μg/mL; the maximum concentration tested)
[8]
  MIC M. haemolytica: 50 µg/mL
C. albicans MYA-2876
  MIC C. albicans: > (the use of > indicates an MIC >200 μg/mL; the maximum concentration tested)

## TVTKFVKLIAKTVKKFTK [STIP9-2]
M. luteus ATCC 4698
  MIC M. luteus: 6.25 µg/mL
S. aureus ATCC 29213
  MIC S. aureus: > (the use of > indicates an MIC >200 μg/mL; the maximum concentration tested)
[8]
  MIC M. haemolytica: 100 µg/mL
C. albicans MYA-2876
  MIC C. albicans: 25 µg/mL

## TVTKFVKLIAKTVKKFTK-NH2 [STIP9-3]
M. luteus ATCC 4698
  MIC M. luteus: 3.13 µg/mL
S. aureus ATCC 29213
  MIC S. aureus: > (the use of > indicates an MIC >200 μg/mL; the maximum concentration tested)
[8]
  MIC M. haemolytica: 100 µg/mL
C. albicans MYA-2876
  MIC C. albicans: 100 µg/mL

## TVGGLAKWILDTVKKFA [V6A, TVGGLAKWILDTVKKFA]
M. luteus ATCC 4698
  MIC (μg/mL) M. luteus: 50 µg/mL
S. aureus ATCC 29213; Table 4
  MIC (μg/mL) S. aureus: > (> = >200 μg/mL (maximum concentration tested))
S. aureus ATCC 29213; Table 10
  MIC (μg/mL) S. aureus: > (the use of > indicates an MIC > 200 μg/mL; the maximum concentration tested)
[8]; Table 10, liquid broth
  MIC (μg/mL) M. haemolytica: 100 µg/mL

## TVKSFVNLILDTVKKYAK [STIP8-1]
M. luteus ATCC 4698
  MIC M. luteus: 100 µg/mL
S. aureus ATCC 29213
  MIC S. aureus: > (the use of > indicates an MIC >200 μg/mL; the maximum concentration tested)
[8]
  MIC M. haemolytica: > (the use of > indicates an MIC >200 μg/mL; the maximum concentration tested)
C. albicans MYA-2876
  MIC C. albicans: 100 µg/mL

Reference: patent US12370235B2, “Synthetic, non-natural antimicrobial peptides inspired by Staphylococcus auricularis delta toxin” (University of Saskatchewan, priority 2021, dated 2025)
